Measured values: ChEMBL document CHEMBL1201862, “PubChem BioAssay data set” (2004)
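Values below derive from 48-hour exposures of cells grown in 96-well plates, with endpoints linearly interpolated between the two concentrations bracketing the appropriate inhibition level. Here, GI50 denotes the concentration required for 50% inhibition of growth.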 The source made the active and inactive calls. Rule as the data show it: active = GI50 up to about 1.1 µM and inactive = higher.

Assays:
Assay in all cases: NCI anticancer screen, dose series, 48 h
[1] = tested on: KM12
[2] = tested on: NCI-H460
[3] = tested on: TK-10
[4] = tested on: SF-268
[5] = tested on: K562
[6] = tested on: SR
[7] = tested on: OVCAR-8
[8] = tested on: MDA-MB-231
[9] = tested on: Malme-3M
[10] = tested on: SF-295
[11] = tested on: SK-MEL-28
[12] = tested on: Hs-578T
[13] = tested on: U-251
[14] = tested on: SK-MEL-5
[15] = tested on: ACHN
[16] = tested on: 786-0
[17] = tested on: IGROV-1
[18] = tested on: HL-60
[19] = tested on: SW-620
[20] = tested on: CAKI-1
[21] = tested on: COLO 205
[22] = tested on: HOP-62
[23] = tested on: MDA-MB-435
[24] = tested on: EKVX
[25] = tested on: SNB-75
[26] = tested on: HT-29
[27] = tested on: NCI-H522
[28] = tested on: HCT-116
[29] = tested on: CCRF-CEM
[30] = tested on: NCI/ADR-RES
[31] = tested on: HCC 2998
[32] = tested on: UACC-257
[33] = tested on: UACC-62
[34] = tested on: MOLT-4
[35] = tested on: OVCAR-5
[36] = tested on: RPMI-8226
[37] = tested on: SK-MEL-2
[38] = tested on: SN12C
[39] = tested on: NCI-H23
[40] = tested on: NCI-H226
[41] = tested on: A498
[42] = tested on: LOX IMVI
[43] = tested on: DU-145
[44] = tested on: UO-31
[45] = tested on: PC-3
[46] = tested on: A549
[47] = tested on: T47D
[48] = tested on: SNB-19
[49] = tested on: HOP-92
[50] = tested on: SK-OV-3
[51] = tested on: HCT-15
[52] = tested on: SF-539
[53] = tested on: RXF 393
[54] = tested on: OVCAR-4
[55] = tested on: MDA-N
[56] = tested on: OVCAR-3
[57] = tested on: M14
[58] = tested on: MCF7

Structure (SMILES): Cn1/c(=N\c2ccc(Cl)cc2)sc2ccccc21
- GI50 [1]: 21.9 µM (inactive)
- GI50 [2]: 40.7 µM (inactive)
- GI50 [3]: 43 µM (inactive)
- GI50 [4]: > 100 µM (inactive)
- GI50 [5]: 57.9 µM (inactive)
- GI50 [6]: > 100 µM (inactive)
- GI50 [7]: 38.5 µM (inactive)
- GI50 [8]: 35.5 µM (inactive)
- GI50 [9]: 57.7 µM (inactive)
- GI50 [10]: 33.4 µM (inactive)
- GI50 [11]: > 100 µM (inactive)
- GI50 [12]: 62.4 µM (inactive)
- GI50 [13]: 52.5 µM (inactive)
- GI50 [14]: 27.7 µM (inactive)
- GI50 [15]: 49.8 µM (inactive)
- GI50 [16]: 37.7 µM (inactive)
- GI50 [17]: 55.3 µM (inactive)
- GI50 [18]: 44.9 µM (inactive)
- GI50 [19]: 39.8 µM (inactive)
- GI50 [20]: 34 µM (inactive)
- GI50 [21]: 22.3 µM (inactive)
- GI50 [22]: 71.3 µM (inactive)
- GI50 [23]: 42.1 µM (inactive)
- GI50 [24]: 21.1 µM (inactive)
- GI50 [25]: 45.8 µM (inactive)
- GI50 [26]: 32.7 µM (inactive)
- GI50 [27]: 4.98 µM (inactive)
- GI50 [28]: 37 µM (inactive)
- GI50 [29]: > 100 µM (inactive)
- GI50 [30]: 34.7 µM (inactive)
- GI50 [31]: 23.7 µM (inactive)
- GI50 [32]: 35.7 µM (inactive)
- GI50 [33]: 40.6 µM (inactive)
- GI50 [34]: 48.2 µM (inactive)
- GI50 [35]: 34.8 µM (inactive)
- GI50 [36]: 92.3 µM (inactive)
- GI50 [37]: 39.4 µM (inactive)
- GI50 [38]: 75.3 µM (inactive)
- GI50 [39]: 38.9 µM (inactive)
- GI50 [40]: 46 µM (inactive)
- GI50 [41]: 55.2 µM (inactive)
- GI50 [42]: 34.7 µM (inactive)
- GI50 [43]: 26.6 µM (inactive)
- GI50 [44]: 26.1 µM (inactive)
- GI50 [45]: 37 µM (inactive)
- GI50 [46]: 32.5 µM (inactive)
- GI50 [47]: 15 µM (inactive)
- GI50 [48]: > 100 µM (inactive)
- GI50 [49]: 23.3 µM (inactive)
- GI50 [50]: > 100 µM (inactive)
- GI50 [51]: 8.15 µM
- GI50 [52]: 85.1 µM (inactive)
- GI50 [53]: 50.8 µM (inactive)
- GI50 [54]: > 100 µM (inactive)

Structure (SMILES): CCCC1(N2C(=O)c3ccc4c5c(ccc(c35)C2=O)N(C2(CCC)CCCCC2)C4=O)CCCCC1
- GI50 [1]: > 100 µM (inactive)
- GI50 [2]: > 100 µM (inactive)
- GI50 [3]: > 100 µM (inactive)
- GI50 [4]: > 100 µM (inactive)
- GI50 [5]: > 100 µM (inactive)
- GI50 [7]: > 100 µM (inactive)
- GI50 [8]: > 100 µM (inactive)
- GI50 [9]: > 100 µM (inactive)
- GI50 [10]: > 100 µM (inactive)
- GI50 [11]: > 100 µM (inactive)
- GI50 [13]: > 100 µM (inactive)
- GI50 [14]: > 100 µM (inactive)
- GI50 [15]: > 100 µM (inactive)
- GI50 [16]: > 100 µM (inactive)
- GI50 [19]: > 100 µM (inactive)
- GI50 [20]: > 100 µM (inactive)
- GI50 [21]: > 100 µM (inactive)
- GI50 [22]: > 100 µM (inactive)
- GI50 [23]: > 100 µM (inactive)
- GI50 [55]: > 100 µM (inactive)
- GI50 [26]: > 100 µM (inactive)
- GI50 [27]: > 100 µM (inactive)
- GI50 [28]: > 100 µM (inactive)
- GI50 [30]: > 100 µM (inactive)
- GI50 [31]: > 100 µM (inactive)
- GI50 [33]: > 100 µM (inactive)
- GI50 [56]: > 100 µM (inactive)
- GI50 [34]: > 100 µM (inactive)
- GI50 [35]: > 100 µM (inactive)
- GI50 [36]: > 100 µM (inactive)
- GI50 [37]: > 100 µM (inactive)
- GI50 [38]: > 100 µM (inactive)
- GI50 [39]: > 100 µM (inactive)
- GI50 [41]: > 100 µM (inactive)
- GI50 [43]: > 100 µM (inactive)
- GI50 [44]: > 100 µM (inactive)
- GI50 [45]: > 100 µM (inactive)
- GI50 [57]: > 100 µM (inactive)
- GI50 [46]: > 100 µM (inactive)
- GI50 [47]: > 100 µM (inactive)
- GI50 [58]: > 100 µM (inactive)
- GI50 [48]: > 100 µM (inactive)
- GI50 [49]: > 100 µM (inactive)
- GI50 [50]: > 100 µM (inactive)
- GI50 [51]: > 100 µM
- GI50 [52]: > 100 µM (inactive)
- GI50 [53]: > 100 µM (inactive)
- GI50 [54]: > 100 µM (inactive)

Structure (SMILES): C=CCNc1nc(C#N)c(N)s1
- GI50 [2]: > 10 µM (inactive)
- GI50 [4]: > 10 µM (inactive)
- GI50 [5]: > 10 µM (inactive)
- GI50 [6]: > 10 µM (inactive)
- GI50 [9]: > 10 µM (inactive)
- GI50 [11]: > 10 µM (inactive)
- GI50 [13]: > 10 µM (inactive)
- GI50 [14]: > 10 µM (inactive)
- GI50 [15]: > 10 µM (inactive)
- GI50 [16]: > 10 µM (inactive)
- GI50 [17]: > 10 µM (inactive)
- GI50 [18]: > 10 µM (inactive)
- GI50 [19]: > 10 µM (inactive)
- GI50 [20]: > 10 µM (inactive)
- GI50 [21]: > 10 µM (inactive)
- GI50 [22]: > 10 µM (inactive)
- GI50 [23]: > 10 µM (inactive)
- GI50 [25]: > 10 µM (inactive)
- GI50 [29]: > 10 µM (inactive)
- GI50 [30]: > 10 µM (inactive)
- GI50 [33]: > 10 µM (inactive)
- GI50 [34]: > 10 µM (inactive)
- GI50 [35]: > 10 µM (inactive)
- GI50 [36]: > 10 µM (inactive)
- GI50 [37]: > 10 µM (inactive)
- GI50 [39]: > 10 µM (inactive)
- GI50 [57]: > 10 µM (inactive)
- GI50 [46]: > 10 µM (inactive)
- GI50 [47]: > 10 µM (inactive)
- GI50 [58]: > 10 µM (inactive)
- GI50 [49]: > 10 µM (inactive)
- GI50 [50]: > 10 µM (inactive)
- GI50 [53]: > 10 µM (inactive)
- GI50 [54]: > 10 µM (inactive)
